Assay results published in ChEMBL document CHEMBL1914297, “Regulators of G protein signaling (RGS) proteins as drug targets: modulating G-protein-coupled receptor (GPCR) signal transduction” (J Med Chem, 2011).
Where a SMILES comes first, the peptide text is derived from it. Bridges are numbered along the chain shown (N, C = ends).

Tests used:
Homo sapiens [1] = species on record: Homo sapiens; experiment: Selectivity ratio of IC50 for human RGS4 expressed in Escherichia coli BL21 (DE3) to IC50 for human RGS8 expressed in Escherichia coli BL21 (DE3)
Homo sapiens [2] = species on record: Homo sapiens; experiment: Selectivity ratio of IC50 for human RGS4 expressed in Escherichia coli BL21 (DE3) to IC50 for human RGS16 expressed in Escherichia coli BL21 (DE3)
[3] = target: Regulator of G-protein signaling 4 (Homo sapiens) (UniProt P49798); experiment: Inhibition of RGS4 GTPase accelrating activity
[4] = Selectivity for RGS4 over RGS8
[5] = Selectivity for RGS4 over RGS16

Regulator of G-protein signaling 4 (Homo sapiens), sequence (P49798 whole entry, looked up): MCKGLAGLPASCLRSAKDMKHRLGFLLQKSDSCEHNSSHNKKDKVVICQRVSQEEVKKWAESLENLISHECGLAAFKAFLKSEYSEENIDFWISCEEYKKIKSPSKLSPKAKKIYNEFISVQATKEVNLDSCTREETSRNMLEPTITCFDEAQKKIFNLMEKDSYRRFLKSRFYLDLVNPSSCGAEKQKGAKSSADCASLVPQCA

SMILES | Ratio IC50 (Homo sapiens [1]) | Ratio IC50 (Homo sapiens [2]) | INH [3] [µM] | Selectivity ratio [4] | Selectivity ratio [5]
Cc1cccc(Oc2nc3c(C)cccn3c(=O)c2/C=C(\C#N)c2nc3ccccc3s2)c1 | 10 | 10 | – | – | –
Cc1cccn2c(=O)c(/C=C(\C#N)c3nc4ccccc4s3)c(Oc3ccc(F)cc3)nc12 | 10 | 10 | – | – | –
CC[C@H](C)[C@@H]1NC(=O)CNC(=O)[C@H]([C@@H](C)O)NC(=O)[C@@H](NC(=O)[C@H](CCCCN)NC(=O)[C@@H](NC(C)=O)C(C)C)CSSC[C@@H](C(=O)N[C@@H](CCC(=O)O)C(N)=O)NC1=O (Ac-VKCTGICE-NH2; disulfide 3-7) | – | – | 26 | – | –
Cc1ccc(-n2sc(=O)n(Cc3ccc(F)cc3)c2=O)cc1 | – | – | – | 100 | 100
